Test results as given in publication PMC9643456, “Matching amino acids membrane preference profile to improve activity of antimicrobial peptides” (Communications Biology, 2022).
Where two headings read alike, the source gives them in different places. Square brackets hold non-standard residues; d marks the D form. Peptide text beside a SMILES is read from it. dBta = N[C@H](Cc1csc2ccccc12)C(=O)O

System: human red blood cells
Experiment: Hemolytic activity
Assay type: cell-based
Experimental: Human red blood cells (Zenbio, North Carolina, USA) and peptides were separately diluted in PBS (blood concentration, 8%). The blood cell and peptide solutions were then mixed in 96-well polyethylene plates (SPL, Gyeonggi-do, Korea) and incubated for 18 h at 37 °C. The final concentration of human red blood cells was 4%, while peptide concentrations were 100 μM, 50 μM, 25 μM, 12.5 μM, 6.25 μM, 3.13 μM, 1.56 μM, and 0.78 μM. After incubation, the plates were centrifuged at 1000 × g for 5 min, and the supernatants were transferred to 96-well polyethylene plates. Hemolysis levels were determined by measuring the absorbance at 540 nm with a SpectraMax plate spectrophotometer (Molecular Devices, California, USA). Control samples were treated with 1% Triton X-100 (for 100% hemolysis) or solution with 0 μM peptide (for 0% hemolysis) and melittin (for positive control). Each experiment was performed in triplicate.

SMILES	Hemolysis percent, 25 μM (red cells of human, 18 h, 25) [%]	Hemolysis percent, 50 μM (red cells of human, 18 h, 50) [%]	Hemolysis percent, 100 μM (red cells of human, 18 h) [%]	Hemolysis percent, 50 μM [%]	Hemolysis percent, 25 μM [%]
CC(C)[C@@H](NC(=O)[C@H](N)Cc1c[nH]c2ccccc12)C(=O)N[C@@H](C(=O)N[C@H](Cc1c[nH]c2ccccc12)C(=O)N[C@@H](C(=O)N[C@@H](C(=O)N[C@H](Cc1c[nH]c2ccccc12)C(=O)N[C@H](CCCNC(=N)N)C(=O)N[C@H](CCCNC(=N)N)C(=O)N[C@H](CCCNC(=N)N)C(N)=O)C(C)C)C(C)C)C(C)C [WCopW42] (H-[dW][dV][dV][dW][dV][dV][dW][dR][dR][dR]-NH2)	7.14	16.66	26.66	–	–
CC(C)C[C@@H](NC(=O)[C@H](N)Cc1c[nH]c2ccccc12)C(=O)N[C@@H](C(=O)N[C@H](Cc1c[nH]c2ccccc12)C(=O)N[C@@H](C(=O)N[C@H](Cc1ccc(O)cc1)C(=O)N[C@H](CC(C)C)C(=O)N[C@H](CCCNC(=N)N)C(=O)N[C@H](CCCCN)C(=O)N[C@H](CCCCN)C(=O)N[C@H](CCCNC(=N)N)C(N)=O)C(C)C)C(C)C [WCopWVY2] (H-[dW][dL][dV][dW][dV][dY][dL][dR][dK][dK][dR]-NH2)	3.46	6.02	10.12	–	–
CC[C@@H](C)[C@@H](NC(=O)[C@@H](Cc1c[nH]c2ccccc12)NC(=O)[C@@H](CC(C)C)NC(=O)[C@@H](CC(C)C)NC(=O)[C@H](N)Cc1c[nH]c2ccccc12)C(=O)N[C@H](C)C(=O)N[C@H](CC(C)C)C(=O)N[C@H](CCCNC(=N)N)C(=O)N[C@H](CCCCN)C(=O)N[C@H](CCCCN)C(=O)N[C@H](CCCNC(=N)N)C(N)=O [WCopW4] (H-[dW][dL][dL][dW][dI][dA][dL][dR][dK][dK][dR]-NH2)	5.94	9.85	18.84	–	–
CC[C@@H](C)[C@@H](NC(=O)[C@@H](Cc1c[nH]c2ccccc12)NC(=O)[C@H](NC(=O)[C@@H](CC(C)C)NC(=O)[C@H](N)Cc1c[nH]c2ccccc12)C(C)C)C(=O)N[C@H](Cc1c[nH]c2ccccc12)C(=O)N[C@H](CCCNC(=N)N)C(=O)N[C@H](CCCNC(=N)N)C(=O)N[C@H](CCCCN)C(=O)N[C@H](CCCNC(=N)N)C(N)=O [WCopW28] (H-[dW][dL][dV][dW][dI][dW][dR][dR][dK][dR]-NH2)	2.33	1.97	5.26	–	–
CC[C@@H](C)[C@@H](NC(=O)[C@@H](Cc1c[nH]c2ccccc12)NC(=O)[C@@H](CC(C)C)NC(=O)[C@@H](CC(C)C)NC(=O)[C@H](N)Cc1csc2ccccc12)C(=O)NCC(=O)N[C@H](CC(C)C)C(=O)N[C@H](CCCNC(=N)N)C(=O)N[C@H](CCCCN)C(=O)N[C@H](CCCCN)C(=O)N[C@H](CCCNC(=N)N)C(N)=O [WCopW16] (H-[dBta][dL][dL][dW][dI]G[dL][dR][dK][dK][dR]-NH2)	2.77	5.57	10.59	–	–
CC(C)[C@@H](NC(=O)[C@H](N)Cc1c[nH]c2ccccc12)C(=O)N[C@@H](C(=O)N[C@H](Cc1c[nH]c2ccccc12)C(=O)N[C@@H](C(=O)N[C@H](Cc1c[nH]c2ccccc12)C(=O)N[C@H](CCCNC(=N)N)C(=O)N[C@H](CCCNC(=N)N)C(=O)N[C@H](CCCNC(=N)N)C(N)=O)C(C)C)C(C)C [WCopW40] (H-[dW][dV][dV][dW][dV][dW][dR][dR][dR]-NH2)	0.45	0.59	2.14	–	–
CC[C@@H](C)[C@@H](NC(=O)[C@@H](Cc1c[nH]c2ccccc12)NC(=O)[C@H](NC(=O)[C@@H](CC(C)C)NC(=O)[C@H](N)Cc1c[nH]c2ccccc12)C(C)C)C(=O)N[C@H](Cc1ccc(O)cc1)C(=O)N[C@H](CC(C)C)C(=O)N[C@H](CCCNC(=N)N)C(=O)N[C@H](CCCCN)C(=O)N[C@H](CCCCN)C(=O)N[C@H](CCCNC(=N)N)C(N)=O [WCopWVY] (H-[dW][dL][dV][dW][dI][dY][dL][dR][dK][dK][dR]-NH2)	2.47	4.51	7.25	–	–
CC[C@@H](C)[C@@H](NC(=O)[C@@H](Cc1c[nH]c2ccccc12)NC(=O)[C@@H](CC(C)C)NC(=O)[C@H](N)CC(C)C)C(=O)N[C@H](C)C(=O)N[C@H](CC(C)C)C(=O)N[C@H](CCCCN)C(=O)N[C@H](CCCCN)C(=O)N[C@H](CCCCN)C(=O)N[C@H](CCCCN)C(N)=O [WCopW12] (H-[dL][dL][dW][dI][dA][dL][dK][dK][dK][dK]-NH2)	0.98	0.98	0.98	–	–
CC(C)C[C@@H](NC(=O)[C@H](N)Cc1c[nH]c2ccccc12)C(=O)N[C@@H](C(=O)N[C@H](Cc1c[nH]c2ccccc12)C(=O)N[C@H](CC(=O)O)C(=O)N[C@H](Cc1c[nH]c2ccccc12)C(=O)N[C@H](CCCNC(=N)N)C(=O)N[C@H](CCCNC(=N)N)C(=O)N[C@H](CCCNC(=N)N)C(N)=O)C(C)C [WCopW38] (H-[dW][dL][dV][dW][dD][dW][dR][dR][dR]-NH2)	–	0.06 ±0.06	–	0.06	–
CC[C@@H](C)[C@@H](NC(=O)[C@@H](Cc1c[nH]c2ccccc12)NC(=O)[C@@H](CC(C)C)NC(=O)[C@@H](CC(C)C)NC(=O)[C@H](N)Cc1c[nH]c2ccccc12)C(=O)N[C@H](C)C(=O)N[C@H](CC(C)C)C(=O)N[C@H](CCCNC(=N)N)C(=O)N[C@H](CCCCN)C(=O)N[C@H](CCCCN)C(N)=O [WCopW7] (H-[dW][dL][dL][dW][dI][dA][dL][dR][dK][dK]-NH2)	7.25	10.05	14.99	–	–
CC[C@@H](C)[C@@H](NC(=O)[C@@H](Cc1c[nH]c2ccccc12)NC(=O)[C@@H](CC(C)C)NC(=O)[C@@H](CC(C)C)NC(=O)[C@H](N)Cc1c[nH]c2ccccc12)C(=O)N[C@H](C)C(=O)N[C@H](CC(C)C)C(=O)N[C@H](CCCNC(=N)N)C(=O)N[C@H](CCCCN)C(=O)N[C@H](CCCCN)C(=O)N[C@H](CCCNC(=N)N)C(N)=O [WCopW3] (H-[dW][dL][dL][dW][dI][dA][dL][dR][dK][dK][dR]-NH2)	3.64	9.36	13.37	–	–
CC[C@@H](C)[C@@H](NC(=O)[C@@H](Cc1c[nH]c2ccccc12)NC(=O)[C@H](NC(=O)[C@@H](CC(C)C)NC(=O)[C@H](N)Cc1c[nH]c2ccccc12)C(C)C)C(=O)N[C@H](Cc1ccc(O)cc1)C(=O)N[C@@H](C(=O)N[C@H](CCCNC(=N)N)C(=O)N[C@H](CCCCN)C(=O)N[C@H](CCCCN)C(=O)N[C@H](CCCNC(=N)N)C(N)=O)C(C)C [WCopWVY3] (H-[dW][dL][dV][dW][dI][dY][dV][dR][dK][dK][dR]-NH2)	1.92	5.67	7.01	–	–
CC[C@@H](C)[C@@H](NC(=O)[C@@H](Cc1c[nH]c2ccccc12)NC(=O)[C@@H](CC(C)C)NC(=O)[C@@H](CC(C)C)NC(=O)[C@H](N)Cc1c[nH]c2ccccc12)C(=O)N[C@H](C)C(=O)N[C@H](CC(C)C)C(=O)N[C@H](CCCNC(=N)N)C(=O)N[C@H](CCCCN)C(=O)N[C@H](CCCCN)C(N)=O [WCopW6] (H-[dW][dL][dL][dW][dI][dA][dL][dR][dK][dK]-NH2)	4.12	7.05	18.06	–	–
CC[C@@H](C)[C@@H](NC(=O)[C@@H](Cc1c[nH]c2ccccc12)NC(=O)[C@H](NC(=O)[C@@H](CC(C)C)NC(=O)[C@H](N)Cc1c[nH]c2ccccc12)C(C)C)C(=O)N[C@H](Cc1ccc(O)cc1)C(=O)N[C@H](CCCNC(=N)N)C(=O)N[C@H](CCCCN)C(=O)N[C@H](CCCCN)C(=O)N[C@H](CCCNC(=N)N)C(N)=O [WCopWVY4] (H-[dW][dL][dV][dW][dI][dY][dR][dK][dK][dR]-NH2)	1.86	2.57	5.57	–	–
CCCCCCCCCC(=O)N[C@@H](Cc1c[nH]c2ccccc12)C(=O)N[C@H](CC(N)=O)C(=O)N[C@@H](CC(=O)O)C(=O)N[C@@H]1C(=O)NCC(=O)N[C@@H](CCCN)C(=O)N[C@@H](CC(=O)O)C(=O)N[C@H](C)C(=O)N[C@@H](CC(=O)O)C(=O)NCC(=O)N[C@H](CO)C(=O)N[C@@H]([C@H](C)CC(=O)O)C(=O)N[C@@H](CC(=O)c2ccccc2N)C(=O)O[C@@H]1C [Daptomycin, reference compound]	0.01	0.03	0.04 ±0.02	–	0.01 ±0.02
CC[C@@H](C)[C@@H](NC(=O)[C@@H](CC(C)C)NC(=O)[C@H](N)Cc1c[nH]c2ccccc12)C(=O)N[C@H](Cc1c[nH]c2ccccc12)C(=O)N[C@@H](C(=O)N[C@H](Cc1ccc(O)cc1)C(=O)N[C@H](CCCNC(=N)N)C(=O)N[C@H](CCCCN)C(=O)N[C@H](CCCCN)C(=O)N[C@H](CCCNC(=N)N)C(N)=O)C(C)C [WCopW27] (H-[dW][dL][dI][dW][dV][dY][dR][dK][dK][dR]-NH2)	1.82	3.95	7.43	–	–
